From patent US12509431B2, “1,4-dihydroquinazolinone compounds and uses thereof” (Edgewise Therapeutics, Inc., priority 2022, dated 2025)

Legend:
Type in all cases: biochemical
[1] = biological target: T1, myosin+human ventricle RLC (Sus scrofa, UniProt P79293); test: NADH-coupled actin-activated ATPase assay, myosin + human ventricle RLC; conditions: 2 μM myosin, rabbit skeletal actin, 25° C., 1% DMSO
T1 construct: Full-length myosin was resuspended to 1 mg/mL
Protocol: (§1) Full-length myosin was resuspended to 1 mg/mL in a buffer containing 500 mM KCl, 10 mM KPi, 15 mM CDTA, pH 8.5. Triton-X was then added to a final concentration of […], and the suspension was agitated for 15 minutes at room temperature to selectively remove the regulatory light chain (RLC). RLC-removed myosin was then precipitated and collected and resuspended in a buffer containing 400 mM KCl, 50 mM Mops, pH 7, 2 mM MgCl2, and 1 mM DTT. Recombinantly expressed and purified human ventricle RLC was added in a 3-fold molar excess to myosin and incubated on ice for 2 hours to allow for reassociation of the RLC onto myosin. Triton (0.1%) was added to the reaction to prevent any non-specific binding events. RLC-exchanged myosin was then precipitated and collected and resuspended in a buffer containing 12 mM PIPES, pH 6.8, […], 2 mM MgCl2, and 1 mM DTT. RLC removal and exchange were confirmed by SDS-PAGE and proteins were visualized using coomassie stain.
(§2) Myosin was resuspended in buffer A (f.c.=12 mM PIPES, pH 6.8, 30 mM KCl, 2 mM MgCl2, 1 mM DTT, 0.1 mg/mL BSA, 0.01% (v/v) Antifoam 204, and 0.6% (v/v) PK/LDH (final reaction contains ≥3.6 U/mL PK and >5.4 U/mL LDH)) at final concentrations of 1 μM for myosin+native RLC and 2 μM for myosin+removed RLC and myosin+human ventricle RLC. Buffer A was then mixed with an equal volume of buffer B (f.c.=12 mM PIPES, pH 6.8, 30 mM KCl, 2 mM MgCl2, 1 mM DTT, 0.1 mg/mL BSA, 0.01% (v/v) Antifoam 204, 0.5 mM NADH, 1.5 mM phosphoenolpyruvate, 1 mM ATP, and 0.3 mg/mL filamentous rabbit skeletal actin) in a 384-well plate. Dose-dependent compound effects were assessed by adding the compounds at varying concentrations between 100 μM and 2 nM, all with a constant final DMSO concentration of 1% v/v. The reactions were run at a constant temperature of 25° C. in the plate reader to monitor the change in A340 over time. Measurements were taken every 90 sec for 75 min to generate raw time-domain absorbance data, which was processed to normalized reaction rates. Normalized enzymatic rates were calculated, using rates observed in 1% (v/v) in DMSO as 100% and 0 slope as 0%. Compound-specific activity curves were generated by plotting the normalized rates versus compound concentration and fitting the data to a 4-parameter logistic model. In addition to the fit parameters, the IC25% was calculated, relative to the 100% normalized value.

myosin+native RLC = biological target: T2, myosin+native RLC (Sus scrofa, UniProt P79293); test: NADH-coupled actin-activated ATPase assay, myosin + native RLC; conditions: 1 μM myosin, rabbit skeletal actin, 25° C., 1% DMSO
T2 construct: Full-length myosin was resuspended to 1 mg/mL
T2 sequence (P79293 whole entry): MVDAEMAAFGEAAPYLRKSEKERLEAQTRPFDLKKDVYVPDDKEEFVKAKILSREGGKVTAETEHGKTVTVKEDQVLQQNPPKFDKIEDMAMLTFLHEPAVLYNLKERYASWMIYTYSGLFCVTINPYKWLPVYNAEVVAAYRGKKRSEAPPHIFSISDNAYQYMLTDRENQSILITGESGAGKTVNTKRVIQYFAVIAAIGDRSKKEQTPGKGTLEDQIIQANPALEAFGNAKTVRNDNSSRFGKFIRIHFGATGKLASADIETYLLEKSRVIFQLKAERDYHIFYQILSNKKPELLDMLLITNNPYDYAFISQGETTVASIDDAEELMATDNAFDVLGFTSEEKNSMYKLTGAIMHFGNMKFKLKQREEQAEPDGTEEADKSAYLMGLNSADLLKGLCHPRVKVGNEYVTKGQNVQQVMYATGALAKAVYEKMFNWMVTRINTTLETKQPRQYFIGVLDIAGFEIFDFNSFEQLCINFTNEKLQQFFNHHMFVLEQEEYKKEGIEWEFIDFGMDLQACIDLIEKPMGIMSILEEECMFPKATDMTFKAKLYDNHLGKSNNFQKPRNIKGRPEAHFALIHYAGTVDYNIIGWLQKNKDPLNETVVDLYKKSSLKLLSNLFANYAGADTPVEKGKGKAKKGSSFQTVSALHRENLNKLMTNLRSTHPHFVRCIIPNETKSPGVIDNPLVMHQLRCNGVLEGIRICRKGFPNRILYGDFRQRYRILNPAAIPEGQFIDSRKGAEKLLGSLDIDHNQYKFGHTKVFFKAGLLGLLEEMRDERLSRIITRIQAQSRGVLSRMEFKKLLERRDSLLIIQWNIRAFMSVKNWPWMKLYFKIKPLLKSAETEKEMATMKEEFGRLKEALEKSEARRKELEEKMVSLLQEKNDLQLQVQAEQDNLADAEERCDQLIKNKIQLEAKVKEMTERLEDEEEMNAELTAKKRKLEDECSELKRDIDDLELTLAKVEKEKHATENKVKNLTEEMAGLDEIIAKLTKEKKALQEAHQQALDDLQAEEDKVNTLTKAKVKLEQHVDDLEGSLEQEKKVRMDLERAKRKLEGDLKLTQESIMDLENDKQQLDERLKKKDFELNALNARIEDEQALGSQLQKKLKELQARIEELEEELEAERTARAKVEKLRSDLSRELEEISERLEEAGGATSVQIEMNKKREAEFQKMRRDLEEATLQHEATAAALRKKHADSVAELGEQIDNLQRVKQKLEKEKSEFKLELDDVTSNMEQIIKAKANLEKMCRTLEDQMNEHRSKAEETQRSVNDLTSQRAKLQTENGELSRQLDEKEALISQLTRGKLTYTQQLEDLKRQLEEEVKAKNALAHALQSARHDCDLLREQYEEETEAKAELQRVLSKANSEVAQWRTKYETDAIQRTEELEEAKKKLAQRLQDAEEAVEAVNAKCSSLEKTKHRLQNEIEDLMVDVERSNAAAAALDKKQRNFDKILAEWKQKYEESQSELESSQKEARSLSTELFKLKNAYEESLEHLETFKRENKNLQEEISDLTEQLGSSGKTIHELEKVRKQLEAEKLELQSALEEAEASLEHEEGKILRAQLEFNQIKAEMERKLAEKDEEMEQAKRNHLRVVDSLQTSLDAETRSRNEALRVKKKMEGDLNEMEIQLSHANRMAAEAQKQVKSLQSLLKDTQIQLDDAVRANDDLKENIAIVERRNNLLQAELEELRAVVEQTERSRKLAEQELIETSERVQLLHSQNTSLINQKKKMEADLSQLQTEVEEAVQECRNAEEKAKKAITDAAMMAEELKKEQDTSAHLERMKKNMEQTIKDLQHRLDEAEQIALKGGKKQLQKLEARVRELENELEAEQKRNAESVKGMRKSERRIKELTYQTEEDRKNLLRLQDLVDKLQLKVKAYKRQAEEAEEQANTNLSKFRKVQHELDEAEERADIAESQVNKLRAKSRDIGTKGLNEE
Protocol: as §1, §2

myosin+removed RLC = biological target: T3, myosin+removed RLC (Sus scrofa, UniProt P79293); test: NADH-coupled actin-activated ATPase assay, myosin + removed RLC; conditions: 2 μM myosin, rabbit skeletal actin, 25° C., 1% DMSO
T3 construct: Full-length myosin was resuspended to 1 mg/mL
T3 sequence (P79293 whole entry): as above
Protocol: as §1, §2

Porcine Atria myofibrils = test: Myofibril ATPase assay (PK/LDH NADH-coupled), atria myofibrils
Summary of the method: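 Values are EC25% (and, for inhibitors, EC50%) from 4-parameter logistic fits of activity normalized to vehicle wells. Rates came from linear regression of 340 nm kinetic reads (every 1.5-2 min, 75 min) of NADH-coupled ATP turnover by porcine atria myofibrils.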

[2] = test system: Rabbit Skeletal myofibrils (rabbit psoas muscle); test: Myofibril ATPase assay (PK/LDH NADH-coupled), skeletal myofibrils
Summary of the method: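 ATPase rate taken as linear-regression slope of A340 (NADH depletion through PK/LDH coupling) over a 75 min kinetic read, with psoas-derived rabbit skeletal myofibrils at pH 7.0. Four-parameter fits of vehicle-normalized activity give EC25 and, where reached, EC50.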

T1 sequence (P79293 whole entry): as above

Potency, Full-length myosin + exchanged human ventricle RLC [1]	Potency, Full-length myosin + native porcine ventricle RLC (myosin+native RLC)	Potency, Full-length myosin + RLC removed (myosin+removed RLC)	Porcine Atria IC25 (Porcine Atria myofibrils; Table 8)	Rabbit Psoas IC25 ([2]; Table 8)	Porcine Atria IC25 (Porcine Atria myofibrils; Table 7)	Rabbit Psoas IC25 ([2]; Table 7)	SMILES
690 nM	550 nM	>100000 nM	60 nM	19.1 nM	–	–	N#Cc1cnc2c(c1)OCC2NC(=O)CN1Cc2c(ccc(F)c2F)NC1=O (single isomer, unassigned) [Compound B65]
680 nM	970 nM	>100000 nM	30 nM	11.29 nM	–	–	CC(NC(=O)CN1Cc2cc(F)ccc2NC1=O)c1ccc(C#N)cc1F (single isomer, unassigned) [Compound B206]
13900 nM	15480 nM	>100000 nM	130 nM	422.8 nM	–	–	C[C@@H](NC(=O)CN1Cc2c(ccc(F)c2F)NC1=O)c1ncc(C#N)cc1F [Compound B141, (R)—N-(1-(5-cyano-3-fluoropyridin-2-yl)ethyl)-2-(5,6-difluoro-2-oxo-1,4-dihydroquinazolin-3(2H)-yl)acetamide]
670 nM	1190 nM	>100000 nM	20 nM	11.6 nM	–	–	O=C(CN1Cc2cc(F)ccc2NC1=O)N[C@@H]1COc2cc(F)cc(F)c21 [Compound B145]
480 nM	630 nM	>100000 nM	50 nM	16.23 nM	–	–	O=C(CN1Cc2c(ccc(F)c2F)NC1=O)N[C@@H]1COc2cc(F)cc(F)c21 [Compound B147]
330 nM	390 nM	>100000 nM	30 nM	18.79 nM	–	–	C[C@H](NC(=O)CN1Cc2c(ccc(F)c2F)NC1=O)c1ccc(C#N)cc1F [Compound B189]
440 nM	450 nM	>100000 nM	40 nM	20.19 nM	–	–	C[C@H](NC(=O)CN1Cc2c(ccc(F)c2F)NC1=O)c1ncc(F)cc1F [Compound B191]
629 nM	560 nM	>100000 nM	90 nM	39.4 nM	–	–	C[C@H](NC(=O)CN1Cc2cc(F)ccc2NC1=O)c1ncc(C#N)cc1F [Compound B199]
1020 nM	970 nM	>100000 nM	60 nM	32.05 nM	–	–	C[C@H](NC(=O)CN1Cc2cc(F)ccc2NC1=O)c1ccc(F)cc1F [Compound B247, N-[(1S)-1-(2,4-Difluorophenyl)ethyl]-2-(6-fluoro-2-oxo-1,4-dihydroquinazolin-3-yl)acetamide]
400 nM	400 nM	>100000 nM	–	–	80 nM	19.37 nM	O=C(CN1C(=O)Nc2cccnc2C12CC2)N[C@@H]1COc2cc(F)cc(F)c21 [Compound N33]
